Laboratory results as given in patent publication US20220033431A1, “Cyclic Di-Nucleotide Compounds as STING Agonists” (Merck Sharp & Dohme Corp., priority 2018, published 2022).
Like-named read-outs stand apart in the source and are kept apart here.

Legend:
[1] = system: THP1 cells; experiment: IFN-β secretion in THP1 cell culture (5 h); format: cell-based, human; conditions: 30 uM cGAMP = 100%; for activation at 30 µM: Homo sapiens, THP-1, 5 h
Method: The ability of compounds to stimulate the secretion of interferon-beta from THP1 cells was measured using a human IFN-β AlphaLISA kit (Perkin Elmer, Cat. No. AL265F). The basic protocol is as follows:
A Labcyte Echo 550 acoustic dispenser was used to transfer 120 nL of compound dissolved in DMSO into the wells of an empty, sterile 384-well microplate, (Corning, Cat. No. 3712). THP1 cells (American Type Culture Collection, Cat. No. TIB202) previously frozen in Recovery Medium (Life Technologies, Cat. No. 12648-010) were thawed and immediately diluted 10-fold into 37° C. assay medium (RPMI 1640+L-Glutamine & phenol red, Life Technologies, Cat. No. 11875-085; 0.5% heat inactivated fetal bovine serum, Sigma Aldrich, Cat. No. F4135; 1 mM Sodium Pyruvate, Life Technologies, Cat. No. 11360-070; lx non essential amino acids; Life Technologies, Cat. No. 11140-050). The cell viability and count was ascertained using a Beckman Coulter V-Cell XR cell counter. The cell suspension was centrifuged at 200×g for 5 min at RT. Cells were resuspended to a density of 0.8×10^6/mL in 37° C. assay medium. Subsequent liquid transfers were performed using either a Matrix electronic multichannel pipette or an Agilent Bravo Automated Liquid Handling Platform.
The assay was started by dispensing 40 μL of the previously prepared cell suspension into the wells of the plate containing compounds. After 5 h incubation at 37° C., 5% CO2 in a humidified atmosphere, the plate of cells and compounds was centrifuged at 200×g for 5 min at RT. From each well, […] of supernatant was transferred into corresponding wells of a white 384-well plate (Perkin Elmer, Cat. No. 6005620). To these supernatant-containing wells was added 10 μL of 5× Anti-Analyte Acceptor beads (50 μg/mL of AlphaLISA HiBlock Buffer) and incubated for 30 min at RT while shaking on an orbital plate shaker. To each well was added 10 μL of 5× Biotinylated Antibody Anti-analyte (5 nM in AlphaLISA HiBlock Buffer) and incubated on an orbital plate shaker for 60 min at RT or overnight at 4° C. To each well was added 25 μL of 2× SA-Donor beads ([…] in AlphaLISA HiBlock Buffer) and incubated for 30-45 min at RT in the dark while shaking on an orbital plate shaker. The plate was then read on a Perkin Elmer Envision (λex=680 nm, λem=[…]). The percent effect of the AlphaLISA signal at each compound concentration was calculated based on 30 uM cGAMP positive controls and 0.3% DMSO negative controls. The plot of percent effect versus the log of compound concentration was fit with a 4-parameter concentration response equation to calculate EC50 values. The test compounds were tested at concentrations 30000, 10000, 3333, 1111, 370.4, 123.4, 41.2, 13.7, 4.6, and 1.5 nM with 0.3% residual DMSO. The control compound, cGAMP was tested at concentrations 100000, 33333, 11111, 3704, 1235, 412, 137, 46, and 15 nM with 0.3% residual DMSO.
Compounds of the disclosure were evaluated for IFN-β secretion in THP1 cell culture as described above. The following table tabulates the biological data for these compounds as percent activation relative to 2′3′-cGAMP at the 30 μM concentration.

[2] = molecular target: T1, full-length HAQ STING (Homo sapiens, UniProt Q86WV6, G230A/H232R/R293Q/R71H); experiment: 3H-cGAMP filtration binding assay (HAQ STING); conditions: 3H-cGAMP filtration binding assay for HAQ STING; competition with tritiated cGAMP
T1 construct: Full-Length HAQ STING [STING(1-379)R71H, G230A, H232R,; made in house; host or cells: Trichoplusia ni insect cells (baculovirus made in Sf21); membrane preparation
Source text: The ability of compounds to bind STING is quantified by their ability to compete with tritiated cGAMP ligand for human STING receptor membrane using a radioactive filter-binding assay. The binding assay employs STING receptor obtained from Trichoplusia ni cell membranes (T.ni; Expression Systems, cat #94-002F, www.expressionsystems.com) overexpressing full-length HAQ STING and tritiated cGAMP ligand.
The basic HAQ STING filtration assay protocol is as follows:
Compound and membrane then preincubated for 60 min at RT to allow compound binding to equilibrate. Following equilibration, 8 nM of [^3H]c-GAMP ligand was prepared by diluting into assay buffer, and 50 uL of this working stock was then manually added to each well of the assay plate. […] The filter plates were then dried at 55° C. for 30 min using a pressurized oven before 30 uL of ULTIMA GOLD F scintillate was added to each well. Tritium levels for each reaction well were then measured using a PerkinElmer TopCount plate reader.
After normalization to controls, the percent activity for each compound concentration was calculated by measuring the amount of remaining radioactivity. The plot of percent activity versus the log of compound concentration was fit with a 4-parameter dose response equation to calculate EC50 values.

[3] = IFN-β secretion, THP1 cells, 5 h, 30 μM
[4] = IFN-β secretion, THP1 cells, 5 h, 30 μM, read-out: % Effect at 30 μM relative to 2′3′-cGAMP

T1 sequence (Q86WV6 with tags, fused parts or gaps R71H/G230A/H232R/R293Q): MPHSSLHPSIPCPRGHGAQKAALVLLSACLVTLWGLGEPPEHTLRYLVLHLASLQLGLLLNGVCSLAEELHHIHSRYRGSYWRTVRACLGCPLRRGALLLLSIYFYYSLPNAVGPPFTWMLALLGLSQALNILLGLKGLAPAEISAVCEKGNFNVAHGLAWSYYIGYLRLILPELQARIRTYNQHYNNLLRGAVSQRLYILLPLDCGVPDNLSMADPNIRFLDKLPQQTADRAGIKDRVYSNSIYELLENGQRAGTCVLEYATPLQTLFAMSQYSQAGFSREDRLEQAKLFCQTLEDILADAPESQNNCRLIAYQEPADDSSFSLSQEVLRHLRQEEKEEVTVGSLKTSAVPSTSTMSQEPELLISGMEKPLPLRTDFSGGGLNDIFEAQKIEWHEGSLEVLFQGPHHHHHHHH

Nc1nc2c(nnn2[C@@H]2O[C@@H]3COP(=O)(S)O[C@H]4C[C@H](n5ccc6c(N)ncnc65)O[C@@H]4COP(=O)(S)O[C@H]2[C@@H]3F)c(=O)[nH]1 (single isomer, unassigned) [Example 26]
% Effect at 30 μM relative to 2′3′-cGAMP [1, 3]: 79%
EC50 [2]: 0.00562 µM

Nc1nc2c(ncn2[C@@H]2O[C@@H]3COP(=O)(S)O[C@H]4[C@H](F)[C@H](n5nnc6c(N)ncnc65)O[C@@H]4COP(=O)(S)O[C@H]2[C@@H]3O)c(=O)[nH]1 (single isomer, unassigned) [Example 2]
% Effect at 30 μM relative to 2′3′-cGAMP [1, 3]: 29%
EC50 [2]: 1.13 µM

Nc1nc2c(ncn2[C@@H]2O[C@@H]3COP(=O)(S)O[C@H]4[C@H](F)[C@H](n5cnc6c(N)ncnc65)O[C@@H]4COP(=O)(S)O[C@H]2[C@@H]3F)c(=O)[nH]1 (single isomer, unassigned) [Example 15]
% Effect at 30 μM relative to 2′3′-cGAMP [1, 3]: 31%

Nc1nc2c(ncn2[C@@H]2O[C@@H]3COP(=O)(S)O[C@H]4[C@H](F)[C@H](n5nnc6c(N)ncnc65)O[C@@H]4COP(=O)(S)O[C@H]2[C@@H]3O)c(=O)[nH]1 (single isomer, unassigned) [Example 1]
% Effect at 30 μM relative to 2′3′-cGAMP [1, 3]: 24%
EC50 [2]: 1.14 µM

Nc1nc2c(ncn2[C@@H]2O[C@@H]3COP(=O)(O)O[C@H]4[C@H](F)[C@H](n5cnc6c(N)ncnc65)O[C@@H]4COP(=O)(S)O[C@H]2[C@@H]3F)c(=O)[nH]1 (single isomer, unassigned) [Example 13]
% Effect at 30 μM relative to 2′3′-cGAMP [1, 3]: 79%

Nc1nc2c(ncn2[C@@H]2O[C@@H]3COP(=O)(S)O[C@H]4[C@H](F)[C@H](n5nnc6c(N)ncnc65)O[C@@H]4COP(=O)(S)O[C@H]2C3)c(=O)[nH]1 (single isomer, unassigned) [Example 8]
% Effect at 30 μM relative to 2′3′-cGAMP [1, 3]: 145%
EC50 [2]: 0.026 µM

Nc1nc2c(ncn2[C@@H]2O[C@@H]3COP(=O)(S)O[C@H]4[C@H](F)[C@H](n5nnc6c(N)ncnc65)O[C@@H]4COP(=O)(S)O[C@H]2[C@@H]3O)c(=O)[nH]1 (single isomer, unassigned) [Example 3]
% Effect at 30 μM relative to 2′3′-cGAMP [1, 3]: 128%
EC50 [2]: 0.0513 µM

Nc1nc2c(ncn2[C@@H]2O[C@@H]3COP(=O)(S)O[C@H]4[C@H](F)[C@H](n5cnc6c(N)ncnc65)O[C@@H]4COP(=O)(S)O[C@H]2[C@@H]3F)c(=O)[nH]1 (single isomer, unassigned) [Example 17]
% Effect at 30 μM relative to 2′3′-cGAMP [1, 3]: 141%

Nc1nc2c(ncn2[C@@H]2O[C@@H]3COP(=O)(S)O[C@H]4[C@H]5OC[C@]4(COP(=O)(S)O[C@H]2[C@@H]3O)O[C@H]5n2cnc3c(N)ncnc32)c(=O)[nH]1 (single isomer, unassigned) [Example 4]
% Effect at 30 μM relative to 2′3′-cGAMP [1, 3]: 113%

Nc1nc2c(nnn2[C@@H]2O[C@@H]3COP(=O)(S)O[C@H]4[C@H](F)[C@H](n5nnc6c(N)ncnc65)O[C@@H]4COP(=O)(S)O[C@H]2[C@@H]3F)c(=O)[nH]1 (stereo partly drawn) [Example 24, 5-amino-3-[(5R,7R,8R,12aR,14R,15S,15aR,16R)-14-(7-amino-3H-[1,2,3]triazolo[4,5-d]pyrimidin-3-yl)-15,16-difluoro-2,10-dioxido-2,10-disulfanyloctahydro-12H-5,8-methanofuro[3,2-1][1,3,6,9,11,2,10]pentaoxadiphosphacyclotetradecin-7-yl]-3,6-dihydro-7H-[1,2,3]triazolo[4,5-d]pyrimidin-7-one]
activation at 30 µM ([1]; read-out: % Effect at 30 μM relative to 2′3′-cGAMP, IFN-β secretion, THP1 cells, 5 h, 30 μM): 129%

Nc1nc2c(nnn2[C@@H]2O[C@@H]3COP(=O)(S)O[C@H]4C[C@H](n5ccc6c(N)ncnc65)O[C@@H]4COP(=O)(S)O[C@H]2[C@@H]3F)c(=O)[nH]1 (single isomer, unassigned) [Example 25]
activation at 30 µM [1, 4]: 92%
EC50 [2]: 0.0999 µM

Nc1nc2c(ncn2[C@@H]2O[C@@H]3COP(=O)(O)O[C@H]4[C@H](F)[C@H](n5cnc6c(N)ncnc65)O[C@@H]4COP(=O)(S)O[C@H]2[C@@H]3F)c(=O)[nH]1 (single isomer, unassigned) [Example 14]
% Effect at 30 μM relative to 2′3′-cGAMP [1, 3]: 257%

Nc1nc2c(ncn2[C@@H]2O[C@@H]3COP(=O)(S)O[C@H]4[C@H](F)[C@H](n5nnc6c(N)ncnc65)O[C@@H]4COP(=O)(S)O[C@H]2C3)c(=O)[nH]1 (single isomer, unassigned) [Example 6]
% Effect at 30 μM relative to 2′3′-cGAMP [1, 3]: 60%
EC50 [2]: 0.241 µM

Nc1nc2c(ncn2[C@@H]2O[C@@H]3COP(=O)(S)O[C@H]4[C@H](F)[C@H](n5cnc6c(N)ncnc65)O[C@@H]4COP(=O)(S)O[C@H]2[C@@H]3F)c(=O)[nH]1 (single isomer, unassigned) [Example 16]
% Effect at 30 μM relative to 2′3′-cGAMP [1, 3]: 188%

Nc1nc2c(ncn2[C@@H]2O[C@@H]3COP(=O)(S)O[C@H]4[C@H]5OC[C@]4(COP(=O)(S)O[C@H]2[C@@H]3O)O[C@H]5n2cnc3c(N)ncnc32)c(=O)[nH]1 (single isomer, unassigned) [Example 5]
activation at 30 µM [1, 4]: 113%

Nc1nc2c(ncn2[C@@H]2O[C@@H]3COP(=O)(S)O[C@H]4[C@H](F)[C@H](n5nnc6c(N)ncnc65)O[C@@H]4COP(=O)(S)O[C@H]2C3)c(=O)[nH]1 (single isomer, unassigned) [Example 7]
% Effect at 30 μM relative to 2′3′-cGAMP [1, 3]: 15%
EC50 [2]: 3.67 µM

Nc1nc2c(nnn2[C@@H]2O[C@@H]3COP(=O)(S)O[C@H]4C[C@H](n5ccc6c(N)ncnc65)O[C@@H]4COP(=O)(S)O[C@H]2C3)c(=O)[nH]1 (single isomer, unassigned) [Example 22]
activation at 30 µM [1, 4]: 69%
